Patent US10426775B2, “Methods for treating Friedreich's ataxia with etravirine” (Fratagene Therapeutics srl, priority 2017, dated 2019)

Legend:
frataxin precursor = assay: Western blot of frataxin in HEK293 Flp-In cells stably transfected with frataxin (HEK293-fxn); format: cell-based, human
Method: For the validation steps, etravirine (TMC125) was purchased from Selleckchem and was dissolved in DMSO at a stock concentration of 10 mM. HEK-293 Flp-In cells, stably overexpressing frataxin, were treated with the drug (or only DMSO) for 24 hours at final concentration of 10 μM. FRDA cells were treated with different concentration of etravirine. For all drug (and no drug) treatments, the final concentration of DMSO in the cell culture medium was 0.1%.
Total cell extracts were prepared in lysis buffer (50 mM Tris-HCl, pH 7.5, 150 mM NaCl, 1% Igepal CA-630, 5 mM EDTA, 5 mM EGTA) supplemented with complete protease inhibitor cocktail (Roche Diagnostics, Indianapolis, Ind., USA). […] The immunoreactive bands were detected by ECL (GE Healthcare, Chalfont St. Giles, UK) and imaged with a ChemiDoc XRS system (Bio-Rad). […] All values are expressed as means±1 S.E.M.
The identified candidate drugs were individually validated for their ability to promote frataxin accumulation in different cell types. […] Protein extracts from the cell lines were resolved on SDS-PAGE and analyzed by western blot with anti-frataxin antibody and anti-tubulin as a loading control. […]
HEK 293-fxn stably expressing frataxin (A), HEK 293 (B), or FRDA lymphoblast cell line GM16203 (C) were treated with 10 μM etravirine for the indicated time points. Protein extracts were resolved on SDS-PAGE and analyzed by western blot with anti-frataxin antibody and anti-tubulin as a loading control. […] Quantitative analysis of newly-synthesized FXN mRNA was performed by metabolic labeling of nascent RNA using the Click-iT Nascent RNA Capture Kit (Life Technologies), followed by biotin conjugation and isolation with streptavidin beads, according to provider instructions. Nascent frataxin transcripts levels were quantitated by real-time PCR relative to the expression of the control genes ACTB, GUSB and ATP5J. […] Relative levels of total frataxin mRNA were measured by real-time PCR and normalized on expression levels of three control genes ATP5J, GUSB and ACTB using the ΔΔCt method. […]

[1] = test system: GM16214 and GM16215 lymphoblasts; assay: Cell viability (XTT) after H2O2 treatment of lymphoblasts; format: cell-based, human; settings: 500 nM etravirine 24 h
Method: Cells were treated with etravirine 500 nM for 24 h, then transferred (40000 cells/100 ul/well) into 96-well tissue culture plates. Cultures were supplemented for 16 h with 12.5 μM, 25 μM and 50 μM H2O2 (Sigma-Aldrich). After H2O2 treatment, 1 mg/ml XTT (2,3-Bis-(2-Methoxy-4-Nitro-5-Sulfophenyl)-2H-Tetrazolium-5-Carboxanilide) (INVITROGEN™, Thermo Fisher Scientific, Waltham, Mass. USA) and 0.25% Phenazine methosulfate (PMS, Fisher Scientific, Thermo Fisher Scientific, Waltham, Mass. USA) were added (25 μL/well) and cells were incubated for additional 2 h. Results were expressed as the percentage of reduction of absorbance at 450 nm by calibration with the absorbance of the control (untreated) cells. […]
FIGS. 6A to 6E show how etravirine functionally can rescue frataxin deficiency in FRDA patient cells. […] Cell extracts were resolved on SDS-PAGE and analysed by western blot with anti-frataxin antibody and anti-tubulin as a loading control. […] Aconitase activity was measured spectrophotometrically at 340 nm as described in the Methods section. Data represent the average of three (C) or five (D) independent experiments±S.E.M. p-values were calculated with Student's t-test (*p<0.05) E): Lymphoblasts derived from FRDA patient (GM16214) or from the unaffected carrier parent (GM16215), were either treated with 500 nM etravirine for 24 hrs or with vehicle only. […]

Structure (SMILES): Cc1cc(C#N)cc(C)c1Oc1nc(Nc2ccc(C#N)cc2)nc(N)c1Br [etravirine]
- increase in frataxin precursor levels (densitometric ratio frataxin precursor/tubulin) (frataxin precursor; HEK293-fxn, 10 μM of each candidate drug, 24 h): striking upregulation
- amount of frataxin precursor (frataxin precursor; HEK293-fxn, etravirine at 10 (μM), detectable after 4 hours, higher after 12 hours): rapid and robust increase
- frataxin accumulation compared with MG132 treatment (frataxin precursor; etravirine vs general proteasome inhibitor MG132, cell system not stated): strikingly stronger
- protection from H2O2-induced cell death ([1]; GM16214 patient lymphoblasts, then 12.5, 25, 50 μM H2O2 for 16 h): significantly protects
- cell viability after H2O2 in healthy control cells upon etravirine treatment ([1]; GM16215 lymphoblasts, then H2O2 for 16 h): no further improvement
